Consider six compounds from DBAASP.

Test systems include Bacillus subtilis PY79; Cladosporium sp.; Aureobasidium pullulans; Saccharomyces cerevisiae; Botrytis cinerea; Fusarium culmorum; Pediococcus acidilactici; Bacillus subtilis; Micrococcus luteus; Enterobacter cloacae; Alternaria brassicicola; Bacillus megaterium; Escherichia coli D31; Fusarium haematococcum; Aerococcus viridans; Neurospora crassa; Klebsiella pneumoniae; Escherichia coli D22; Trichoderma viride; Ascochyta pisi; Listeria grayi DSM 20601; Streptococcus mutans; Streptococcus pyogenes; Streptococcus agalactiae.

What all share (assay): ≥ marks a high value that may be exact or a test limit, other limits are often not marked, values filed in µg/mL are converted to µM
Experiment [1] relates to Escherichia coli DH5alpha.
The test system of experiment [2] is Pseudomonas aeruginosa PA14.
The test system of experiment [3] is Staphylococcus aureus ATCC 6538P.
The subject of experiment [4] is Pseudomonas aeruginosa PAO1.
Experiment [5] relates to Klebsiella pneumoniae ATCC 700603.
The test system of experiment [6] is Escherichia coli ATCC 25922.
Experiment [7] has as its system Pseudomonas aeruginosa ATCC 15692.
In experiment [8] the test system is Staphylococcus epidermidis 5179-R1.
In experiment [9] the test system is Pseudomonas aeruginosa ATCC 27853.
The test system of experiment [10] is Corynebacterium glutamicum ATCC 13032.
The test system of experiment [11] is Staphylococcus epidermidis ATCC 35984.
Experiment [12] concerns Candida albicans ATCC 10231.
Experiment [13] concerns Staphylococcus aureus ATCC 9144.
For experiment [14], the system named is Bacillus subtilis ATCC 23857.
The test system of experiment [15] is Escherichia coli MC4100 NR698.
Experiment [16] relates to Pseudomonas aeruginosa 0108.
Experiment [17] deals with Pseudomonas aeruginosa CGMCC 1.860.
Experiment [18] concerns Pectobacterium carotovorum.
Experiment [19] deals with Listeria fleischmannii DSM 24998.
The test system of experiment [20] is Micrococcus luteus DSM 20030.
Experiment [21] has as its system Listeria monocytogenes DSM 20600.
In experiment [22] the test system is Staphylococcus aureus ATCC 25923.
The subject of experiment [23] is Mycobacterium tuberculosis mc2-6230.
Experiment [24] deals with Streptococcus pneumoniae ATCC 49619.
Experiment [25] relates to Mycobacterium tuberculosis mc2-6020.

≈ marks a conversion by molar mass, not a printed value.

In the case of `CC(C)C[C@H](NC(=O)[C@H](CCCN=C(N)N)NC(=O)[C@@H](NC(=O)[C@H](CCCN=C(N)N)NC(=O)[C@@H](N)CC(C)C)C(C)C)C(=O)N[C@@H](C)C(=O)N[C@@H](CO)C(=O)N[C@@H](Cc1cnc[nH]1)C(=O)N[C@@H](CC(C)C)C(=O)N[C@@H](CCCN=C(N)N)C(=O)N[C@@H](CCCCN)C(=O)N[C@@H](CC(C)C)C(=O)N[C@@H](CCCN=C(N)N)C(=O)N[C@@H](CCCCN)C(=O)N[C@@H](CCCN=C(N)N)C(=O)N[C@@H](CC(C)C)C(=O)N[C@@H](CC(C)C)C(=O)N[C@@H](CCCN=C(N)N)C(=O)O` [LRVRLASHLRKLRKRLLR], the minimum inhibitory concentration (MIC) in experiment [1] is 12.5 µM (≈ 28.6 µg/mL); against Bacillus subtilis PY79, 25 µM (≈ 57.1 µg/mL); in experiment [2] it was not below 50 µM; in experiment [3] it was 3.12 µM (≈ 7.13 µg/mL); in [4], 25 µM (≈ 57.1 µg/mL); in experiment [5], 6.25 µM (≈ 14.3 µg/mL). The MIC in experiment [6] was found to be 6.25 µM (≈ 14.3 µg/mL).
Consider `CC[C@H](C)[C@H](NC(=O)[C@@H](N)CC(=O)O)C(=O)NCC(=O)N[C@@H](CCCCN)C(=O)N[C@@H](Cc1ccc(O)cc1)C(=O)N[C@@H](CS)C(=O)NCC(=O)N[C@@H](Cc1ccc(O)cc1)C(=O)N[C@@H](C)C(=O)N[C@@H](Cc1cnc[nH]1)C(=O)N[C@@H](C)C(=O)N[C@@H](CC(C)C)C(=O)N[C@@H](CC(N)=O)C(N)=O` [DIGKYCGYAHALN], for which the MIC is not below 100 µM in [7]; not below 100 µM in [8]; not below 100 µM against Cladosporium sp.; more than 100 µM in experiment [9]; not below 100 µM against Aureobasidium pullulans; not below 100 µM in experiment [10]. Moreover, the MIC was not below 100 µM in experiment [11]; more than 100 µM in experiment [12]; not below 100 µM in [13]; not below 100 µM in [14]; not below 100 µM with Saccharomyces cerevisiae; more than 100 µM in experiment [6]. Moreover, in experiment [15], the MIC was not below 100 µM.
With `CC[C@H](C)[C@H](N)C(=O)N[C@@H](CCCCN)C(=O)N[C@@H](CCCCN)C(=O)N[C@H](C(=O)N[C@@H](Cc1c[nH]c2ccccc12)C(=O)N[C@@H](CO)C(=O)N[C@@H](CCCCN)C(=O)N[C@H](C(=O)N[C@@H](CCCCN)C(=O)N[C@@H](CCCCN)C(=O)N[C@@H](CC(C)C)C(=O)N[C@@H](CC(C)C)C(=O)N[C@@H](CCCCN)C(N)=O)[C@@H](C)CC)[C@@H](C)CC` [IKKIWSKIKKLLK], the MIC in [16] amounted to 12.5 µM (≈ 20.3 µg/mL); in experiment [17], 6.25 µM (≈ 10.2 µg/mL).
In the case of `CC[C@H](C)[C@H](NC(=O)[C@@H](NC(=O)[C@@H]1CCCN1C(=O)[C@@H](N)C(C)C)[C@@H](C)CC)C(=O)N[C@@H](Cc1ccc(O)cc1)C(=O)N[C@H]1CSSC[C@@H](C(=O)N[C@@H](CCC(N)=O)C(=O)N[C@@H](CCCN=C(N)N)C(=O)N[C@@H](CCSC)C(=O)O)NC(=O)[C@H](CCCCN)NC(=O)CNC(=O)[C@H]([C@@H](C)O)NC(=O)[C@H](CCCN=C(N)N)NC(=O)[C@H](CCCN=C(N)N)NC(=O)[C@H](CC(N)=O)NC1=O` [VPIIYCNRRTGKCQRM], the MIC in the experiment on Botrytis cinerea was 14.1 µM (≈ 27.4 µg/mL); with Fusarium culmorum, 14.1 µM (≈ 27.4 µg/mL); against Pediococcus acidilactici it was 28.3 µM (≈ 54.8 µg/mL); in the experiment with Bacillus subtilis it was 28.3 µM (≈ 54.8 µg/mL); against Micrococcus luteus, 3.54 µM (≈ 6.85 µg/mL); in the experiment with Enterobacter cloacae, 7.07 µM (≈ 13.7 µg/mL). The MIC is 7.07 µM (≈ 13.7 µg/mL) in the experiment with Alternaria brassicicola; 7.07 µM (≈ 13.7 µg/mL) against Bacillus megaterium; 0.849 µM (≈ 1.64 µg/mL) in the experiment with Escherichia coli D31; 7.07 µM (≈ 13.7 µg/mL) in the experiment with Fusarium haematococcum; 1.73 µM (≈ 3.35 µg/mL) against Aerococcus viridans; 28.3 µM (≈ 54.8 µg/mL) in experiment [18]. Besides, the MIC against Neurospora crassa was found to be 14.1 µM (≈ 27.4 µg/mL); against Klebsiella pneumoniae, 3.54 µM (≈ 6.85 µg/mL); in the experiment with Escherichia coli D22, 0.849 µM (≈ 1.64 µg/mL); against Trichoderma viride, 28.3 µM (≈ 54.8 µg/mL); in the experiment on Ascochyta pisi, 28.3 µM (≈ 54.8 µg/mL).
Take `CC[C@H](C)[C@H](N)C(=O)N[C@@H](Cc1ccccc1)C(=O)NCC(=O)N[C@@H](C)C(=O)N[C@H](C(=O)N[C@@H](Cc1c[nH]c2ccccc12)C(=O)N[C@@H](CO)C(=O)NCC(=O)N[C@H](C(=O)N[C@@H](CCCCN)C(=O)N[C@@H](CO)C(=O)N[C@@H](CC(C)C)C(=O)N[C@@H](Cc1ccccc1)C(N)=O)[C@@H](C)CC)[C@@H](C)CC` [IFGAIWSGIKSLF]: the minimal inhibitory concentration (MIC) in experiment [19] turned out to be 4 µM (≈ 5.75 µg/mL); in the experiment with Escherichia coli D31 it was 8 µM (≈ 11.5 µg/mL); against Listeria grayi DSM 20601, 8 µM (≈ 11.5 µg/mL); in [20], 4 µM (≈ 5.75 µg/mL); in [21], 4 µM (≈ 5.75 µg/mL).
As to `CC[C@H](C)[C@H](N)C(=O)N[C@@H](CCCN=C(N)N)C(=O)N[C@@H](CCCCN)C(=O)N[C@@H](CC(C)C)C(=O)N[C@@H](CCCCN)C(=O)N[C@@H](CO)C(=O)N[C@@H](Cc1c[nH]c2ccccc12)C(=O)N[C@@H](CCCCN)C(=O)N[C@@H](Cc1c[nH]c2ccccc12)C(=O)N[C@@H](CC(C)C)C(=O)N[C@@H](CCCN=C(N)N)C(=O)N[C@@H](Cc1c[nH]c2ccccc12)C(=O)N[C@@H](CC(C)C)C(=O)O` [IRKLKSWKWLRWL], the MIC was 8 µM (≈ 14.5 µg/mL) in the experiment on Streptococcus mutans; 32 µM (≈ 58 µg/mL) in experiment [22]; not below 68 µM in experiment [23]; 68 µM (≈ 123 µg/mL) in experiment [9]; 4 µM (≈ 7.25 µg/mL) with Streptococcus pyogenes; not below 32 µM in experiment [24]. The MIC is 16 µM (≈ 29 µg/mL) in [25], 136 µM (≈ 247 µg/mL) in the experiment with Klebsiella pneumoniae, 16 µM (≈ 29 µg/mL) in experiment [6] and not below 32 µM against Streptococcus agalactiae.

Usually MIC stands for the lowest concentration found to suppress growth. Read a low MIC as a more susceptible organism.
